Here are results for 21 compounds from patent US12187709B2 (Genentech, Inc., priority 2021, dated 2025).

For one assay, the target named is Cbl-b (Homo sapiens (Human), UniProt Q13191). Briefly: Cbl-b LCK Ub TR-FRET assay (Cbl-b Lck HTRF). The following applies: for IC50: Cbl-b LCK Ub TR-FRET; for fold-selectivity (Cbl-b over C-cbl): ratio C-cbl Lck HTRF IC50 / Cbl-b Lck HTRF IC50. In kind it is biochemical. An outline of the steps:
(§1)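 After the ubiquitination reaction, detection mixture was added and plates incubated 20 min at room temperature before reading. IC50 values were calculated with wells lacking LCK as the low control and DMSO as the high control.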
(In general: TR-FRET usually uses a lanthanide donor and a delayed reading to cut background.)

The next assay concerns the target c-Cbl (residues 47-435) (Homo sapiens (Human), UniProt P22681). Briefly: c-Cbl SPR assay. In kind it is binding. Particulars: 20° C. An outline of the steps: (§2)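 Values derive from a 1:1 model fitted to multicycle kinetics on captured protein (1300-1500 RU), using six 2-fold concentrations, 60 s contact and dissociation of 120-1200 s. In the chaser format, kd comes from a single-exponential fit of % site occupancy over time.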

For the next assay, the target named is c-Cbl (Homo sapiens (Human), UniProt P22681). Briefly: C-Cbl LCK Ub TR-FRET assay (C-cbl Lck HTRF). The format is biochemical. An outline of the steps:
as §1

The target of assay [1] is Human Cbl-b (residues 40-426) (Homo sapiens (Human), UniProt Q13191). Briefly: Cbl-b SPR assay. In kind it is binding. The following applies: for Fold of selectivity: C-cbl SPR Kd vs Cbl-b SPR Kd; for Kd: SPR, 20° C. In outline:
as §2

Cbl-b, sequence (Q13191 40-426): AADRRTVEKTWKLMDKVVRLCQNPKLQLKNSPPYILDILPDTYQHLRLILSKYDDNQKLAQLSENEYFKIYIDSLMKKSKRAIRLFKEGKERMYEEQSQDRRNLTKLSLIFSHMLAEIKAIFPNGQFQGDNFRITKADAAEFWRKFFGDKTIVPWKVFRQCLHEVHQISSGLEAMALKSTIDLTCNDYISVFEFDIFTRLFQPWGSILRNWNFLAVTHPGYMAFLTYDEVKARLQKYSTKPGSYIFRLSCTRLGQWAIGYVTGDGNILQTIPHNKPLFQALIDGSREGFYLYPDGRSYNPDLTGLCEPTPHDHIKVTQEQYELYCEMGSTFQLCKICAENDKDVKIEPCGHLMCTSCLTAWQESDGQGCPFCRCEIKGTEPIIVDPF
Human Cbl-b (residues 40-426), sequence (Q13191 40-426): as above
c-Cbl, sequence (P22681 47-435): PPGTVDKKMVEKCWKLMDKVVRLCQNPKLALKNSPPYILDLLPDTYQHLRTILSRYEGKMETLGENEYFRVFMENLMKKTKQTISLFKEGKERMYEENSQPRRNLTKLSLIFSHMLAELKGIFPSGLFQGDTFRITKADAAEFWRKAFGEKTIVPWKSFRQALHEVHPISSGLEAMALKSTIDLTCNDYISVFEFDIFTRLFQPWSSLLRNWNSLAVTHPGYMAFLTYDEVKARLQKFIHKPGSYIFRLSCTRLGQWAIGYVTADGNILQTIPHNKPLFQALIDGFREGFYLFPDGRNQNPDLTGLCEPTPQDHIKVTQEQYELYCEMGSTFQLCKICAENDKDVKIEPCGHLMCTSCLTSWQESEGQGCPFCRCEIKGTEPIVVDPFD
c-Cbl (residues 47-435), sequence (P22681 47-435): as above

For `C[C@@H](NC1(C)CCC1)c1cc(Cl)c2c(c1)C(=O)N(c1cccc([C@]3(c4nncn4C)C[C@@H](F)C3)c1)C2` (single isomer, unassigned) [Compound 288], on Cbl-b, the IC50 (as a rule, the concentration that gives 50% inhibition) was 5.3 nM and the “fold-selectivity (Cbl-b over C-cbl)” value turned out to be 0.92x. The Kd (as a rule, a measure of binding affinity in units of concentration) on c-Cbl (residues 47-435) was found to be 0.35 nM. The compound also showed an IC50 against c-Cbl of 4.9 nM. In assay [1], this compound returned a Fold of selectivity of 3.5× and a Kd of 0.1 nM.
Regarding `C[C@H](NC1(C)CCC1)c1cc(Cl)c2c(c1)C(=O)N(c1cccc([C@]3(c4nncn4C)C[C@@H](F)C3)c1)C2` (single isomer, unassigned) [Compound 289], the IC50 stood at 18 nM against Cbl-b and 43 nM at c-Cbl. Besides, the “fold-selectivity (Cbl-b over C-cbl)” value at Cbl-b is on record as 2.4x. In addition, the Kd on c-Cbl (residues 47-435) worked out at 37 nM; in assay [1], 4.6 nM. The Fold of selectivity in assay [1] is given as 8.5×.
As for `Cn1cnnc1[C@H](c1cccc(N2Cc3c(cc(CNC4(C)CCC4)cc3C(F)(F)F)C2=O)c1)C1CCOCC1.O=CO` (single isomer, unassigned) [Compound 291, (S)-2-(3-((4-methyl-4H-1,2,4-triazol-3-yl)(tetrahydro-2H-pyran-4-yl)methyl)phenyl)-6-(((1-methylcyclobutyl)amino)methyl)-4-(trifluoromethyl)isoindolin-1-one formate], the IC50 against Cbl-b came to 11 nM; against c-Cbl, 47 nM. For the same compound, the Kd at c-Cbl (residues 47-435) worked out at 130 nM; in assay [1], 62 nM.
On to `Cn1cnnc1C1(c2cccc(N3Cc4c(cc([C@@H](O)CO)cc4C(F)(F)F)C3=O)c2)CCC1` (single isomer, unassigned) [Compound 301], for which the IC50 came out at 300 nM against Cbl-b and 590 nM at c-Cbl. Moreover, the “fold-selectivity (Cbl-b over C-cbl)” value at Cbl-b turned out to be 2.0x. Besides, the Kd on c-Cbl (residues 47-435) turned out to be 1400 nM; in assay [1], 560 nM. The compound also returned a Fold of selectivity in assay [1] of 2.8×.
Take `Cn1cnnc1C1(c2cccc(N3Cc4c(cc([C@H](O)CO)cc4C(F)(F)F)C3=O)c2)CCC1` (single isomer, unassigned) [Compound 302]: at Cbl-b, the IC50 is 410 nM and the “fold-selectivity (Cbl-b over C-cbl)” value is 2.1x. In addition, on c-Cbl (residues 47-435), the Kd was found to be 1600 nM. Also, on c-Cbl, half-maximal inhibition (IC50) required 880 nM. In assay [1], this compound showed a Fold of selectivity of 4.0× and a Kd of 410 nM.
On to `Cn1cnnc1[C@@H](c1cccc(N2Cc3c(cc(CNC4(C)CCC4)cc3C(F)F)C2=O)c1)C1COC1` (single isomer, unassigned) [Compound 303], for which the IC50 is 11 nM on Cbl-b and 26 nM at c-Cbl. Further, the “fold-selectivity (Cbl-b over C-cbl)” value on Cbl-b was found to be 2.3x. Further, the Kd on c-Cbl (residues 47-435) is 28 nM; in assay [1], 3.3 nM. In assay [1], this compound displayed a Fold of selectivity of 8.2×.
As for `Cn1cnnc1[C@@](O)(c1cccc(N2Cc3c(cc(CNC4(C)CCC4)cc3C(F)(F)F)C2=O)c1)C(F)(F)F` (single isomer, unassigned) [Compound 308], the IC50 worked out at 27 nM against Cbl-b and 41 nM at c-Cbl. Also, the “fold-selectivity (Cbl-b over C-cbl)” value on Cbl-b is reported as 1.5x. In addition, the Kd at c-Cbl (residues 47-435) is 56 nM; in assay [1] it was 37 nM. In assay [1], the Fold of selectivity amounted to 1.5×.
On to `C[C@@H](NC1(C)CCC1)c1cc(Cl)c2c(c1)C(=O)N(c1cccc([C@]3(c4nncn4C)C[C@H](F)C3)c1)C2` (single isomer, unassigned) [Compound 311], for which, at Cbl-b, the IC50 was determined as 4 nM and the “fold-selectivity (Cbl-b over C-cbl)” value was found to be 1.1x. This compound yielded a Kd on c-Cbl (residues 47-435) of 0.25 nM. In addition, on c-Cbl, the IC50 is 4.3 nM. In assay [1], this compound showed a Fold of selectivity of 2.5× and a Kd of 0.1 nM.
For the compound `C[C@H](NC1(C)CCC1)c1cc(Cl)c2c(c1)C(=O)N(c1cccc([C@]3(c4nncn4C)C[C@H](F)C3)c1)C2` (single isomer, unassigned) [Compound 312], at Cbl-b, the IC50 is 7.8 nM and the “fold-selectivity (Cbl-b over C-cbl)” value came out at 3.5x. Also, the Kd at c-Cbl (residues 47-435) is 28 nM. Moreover, on c-Cbl, the midpoint of inhibition, the IC50, lay at 27 nM. In assay [1], this compound yielded a Fold of selectivity of 14× and a Kd of 2 nM.
On to `CC[C@@H](NC1(C)CCC1)c1cc2c(c(C(F)(F)F)c1)CN(c1cccc([C@@H](c3nncn3C)C3COC3)c1)C2=O` (single isomer, unassigned) [Compound 316], for which the IC50 on Cbl-b came to 270 nM; against c-Cbl it was 3100 nM. Besides, at Cbl-b, the “fold-selectivity (Cbl-b over C-cbl)” value worked out at 11x. The Kd at c-Cbl (residues 47-435) is 1300 nM; in assay [1] it was 170 nM. Moreover, the Fold of selectivity in assay [1] is given as 7.5×.
`Cn1cnnc1[C@@H](c1cccc(N2Cc3c(Cl)cc(CNC4(C)CCC4)cc3C2=O)c1)[C@H]1C[C@H](F)C1` (single isomer, unassigned) [Compound 318]: the IC50 was found to be 280 nM against Cbl-b and 1600 nM against c-Cbl. Also, the “fold-selectivity (Cbl-b over C-cbl)” value on Cbl-b was determined as 5.6x. The results for the Kd (on c-Cbl (residues 47-435); in assay [1]) were 2300 nM and 250 nM, respectively. Besides, the Fold of selectivity in assay [1] is recorded as 9.6×.
In the case of `Cn1cnnc1[C@H](c1cccc(N2Cc3c(Cl)cc(CNC4(C)CCC4)cc3C2=O)c1)[C@H]1C[C@@H](F)C1` (single isomer, unassigned) [Compound 319], at Cbl-b, the IC50 came to 12 nM and the “fold-selectivity (Cbl-b over C-cbl)” value was found to be 3.5x. On c-Cbl (residues 47-435), this compound registered a Kd of 53 nM. In addition, the IC50 on c-Cbl was 41 nM. For the same compound, in assay [1], the Fold of selectivity is 8.0× and the Kd was found to be 6.4 nM.
Consider `Cn1cnnc1[C@H](c1cccc(N2Cc3c(Cl)cc(CNC4(C)CCC4)cc3C2=O)c1)[C@H]1C[C@H](F)C1` (single isomer, unassigned) [Compound 320], for which, at Cbl-b, 5.6 nM corresponded to half-maximal inhibition (IC50) and the “fold-selectivity (Cbl-b over C-cbl)” value came to 1.3x. Moreover, the affinity at c-Cbl (residues 47-435), expressed as Kd, was 2.2 nM. In addition, half-maximal inhibition against c-Cbl (IC50) was put at 7.5 nM. In addition, in assay [1], the Fold of selectivity came out at 5.5× and binding was put at a Kd of 0.4 nM.
For the compound `Cc1cc([C@@H](c2nncn2C)C2COC2)cc(N2Cc3c(cc(CNC4(C)CCC4)cc3C(F)(F)F)C2=O)c1` (single isomer, unassigned) [Compound 333], on Cbl-b, the IC50 came to 39 nM and the “fold-selectivity (Cbl-b over C-cbl)” value is 1.0x. On c-Cbl (residues 47-435), this compound displayed a Kd of 56 nM. Further, inhibition on c-Cbl was half-maximal at 41 nM (IC50). Further, in assay [1], the Fold of selectivity is given as 2.2× and the Kd is 26 nM.
As to `COc1cc([C@@H](c2nncn2C)C2COC2)cc(N2Cc3c(cc(CNC4(C)CCC4)cc3C(F)(F)F)C2=O)c1` (single isomer, unassigned) [Compound 339], on Cbl-b, the IC50 is 5.6 nM and the “fold-selectivity (Cbl-b over C-cbl)” value amounted to 1.1x. Also, the Kd on c-Cbl (residues 47-435) is 4.2 nM. This compound registered an IC50 at c-Cbl of 6.3 nM. In assay [1], this compound gave a Fold of selectivity of 2.5× and a Kd of 1.7 nM.
Regarding `Cn1cnnc1[C@@H](c1cccc(N2Cc3c(cc(CNC4(C)CCC4)cc3C(F)(F)F)C2=O)c1)C1CC1` (single isomer, unassigned) [Compound 342], at Cbl-b, half-maximal inhibition (IC50) was put at 5.6 nM and the “fold-selectivity (Cbl-b over C-cbl)” value is 1.2x. The compound further yielded a Kd at c-Cbl (residues 47-435) of 1.2 nM. At c-Cbl, the IC50 worked out at 6.6 nM. In assay [1], this compound showed a Fold of selectivity of 2.4× and a Kd of 0.5 nM.
Regarding `Cn1cnnc1[C@H](c1cccc(N2Cc3c(cc(CNC4(C)CCC4)cc3C(F)(F)F)C2=O)c1)C1CC1` (single isomer, unassigned) [Compound 343], on Cbl-b, the IC50 came to 290 nM and the “fold-selectivity (Cbl-b over C-cbl)” value is on record as 2.1x. Moreover, binding on c-Cbl (residues 47-435) was characterised by a dissociation constant (Kd) of 2800 nM. The compound further registered an IC50 against c-Cbl of 610 nM. In assay [1], this compound registered a Fold of selectivity of 6.4× and a Kd of 440 nM.
Consider `Cn1cnnc1[C@H](c1cccc(N2Cc3c(cc(CNC4(C)CCC4)cc3C(F)(F)F)C2=O)c1)n1ccnc1` (single isomer, unassigned) [Compound 345], for which, on Cbl-b, it took 2400 nM to reach half-maximal inhibition (IC50) and the “fold-selectivity (Cbl-b over C-cbl)” value was 4.4x. In addition, the Kd at c-Cbl (residues 47-435) is 4100 nM. Further, the IC50 at c-Cbl turned out to be 11000 nM. In assay [1], this compound registered a Fold of selectivity of 3× and a Kd of 1300 nM.
Regarding `Cn1nnnc1[C@@H](c1cccc(N2Cc3c(cc(CNC4(C)CCC4)cc3C(F)(F)F)C2=O)c1)C1COC1` (single isomer, unassigned) [Compound 348], on Cbl-b, inhibition was half-maximal at 140 nM (IC50) and the “fold-selectivity (Cbl-b over C-cbl)” value was 3.5x. On c-Cbl (residues 47-435), this compound returned a Kd of 630 nM. The same compound yielded an IC50 against c-Cbl of 500 nM. In assay [1], the Fold of selectivity amounted to 8.4× and the Kd is 75 nM.
As for `Cn1cnnc1C1(c2cccc(N3Cc4c(cc(CNC5(C)CCC5)cc4C(F)(F)F)C3=O)c2)CC(OC(F)(F)F)C1` (single isomer, unassigned) [Compound 351, 2-(3-((1r,3r)-1-(4-methyl-4H-1,2,4-triazol-3-yl)-3-(trifluoromethoxy)cyclobutyl)phenyl)-6-(((1-methylcyclobutyl)amino)methyl)-4-(trifluoromethyl)isoindolin-1-one], on Cbl-b, the IC50 is 6.4 nM and the “fold-selectivity (Cbl-b over C-cbl)” value came to 6.4x. Moreover, at c-Cbl (residues 47-435), the Kd was 19 nM. Moreover, at c-Cbl, inhibition was half-maximal at 20 nM (IC50). For the same compound, in assay [1], the Fold of selectivity is reported as 16× and binding was characterised by a dissociation constant (Kd) of 1.2 nM.
For the compound `Cn1ccnc1[C@@H](c1cccc(N2Cc3c(cc(CNC4(C)CCC4)cc3C(F)(F)F)C2=O)c1)C1COC1` (single isomer, unassigned) [Compound 352], on Cbl-b, 69 nM corresponded to half-maximal inhibition (IC50) and the “fold-selectivity (Cbl-b over C-cbl)” value is given as 4.1x. This compound also showed a Kd at c-Cbl (residues 47-435) of 270 nM. Further, the IC50 on c-Cbl stood at 280 nM. Besides, in assay [1], the Fold of selectivity is 7.6× and the Kd came to 34 nM.
